The assay deals with OTU domain-containing protein 3 (Homo sapiens) (UniProt Q5T2D3). Put plainly: Validation of screening hits, potency titration, in vitro enzymatic, OTU domain-containing protein 3 DUB inhibitors (AID 1645868). The note with it: purified OTUD3, ubiquitin-rhodamine cleavage fluorescence, 2 h.

Calls of active or inactive are those of the source.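 How the source made its calls: active means maximal percent inhibition of the deubiquitinase OTUD3 of at least 30% across the tested doses; inactive means the rest.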

Chain of OTU domain-containing protein 3 (Homo sapiens) (Q5T2D3 whole entry, looked up, the tested form may be a part): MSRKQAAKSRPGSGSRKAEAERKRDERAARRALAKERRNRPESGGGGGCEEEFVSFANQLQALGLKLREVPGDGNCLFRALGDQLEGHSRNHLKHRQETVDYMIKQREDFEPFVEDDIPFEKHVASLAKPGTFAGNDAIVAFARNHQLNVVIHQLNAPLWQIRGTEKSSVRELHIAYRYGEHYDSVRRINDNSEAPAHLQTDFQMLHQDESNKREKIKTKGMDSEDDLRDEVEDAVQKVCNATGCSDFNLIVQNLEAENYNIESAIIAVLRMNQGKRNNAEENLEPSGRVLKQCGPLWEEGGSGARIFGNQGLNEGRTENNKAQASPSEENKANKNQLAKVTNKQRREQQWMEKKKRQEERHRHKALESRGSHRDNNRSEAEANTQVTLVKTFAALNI

A word on the IC50: it is the concentration that inhibits the measured activity by half. `CC(C(=O)NCc1ccc2c(c1)OCO2)N1CCN(c2ccc(O)cc2)CC1` (stereo not drawn): the IC50 was > 50 µM (inactive).
On to `Cc1cccc(NC(=O)CSc2nnc(-c3n[nH]c4c3CCC4)n2N)c1`, for which the IC50 was 31.6 µM.
To `Cc1nc(C(=O)N[C@@H](C)C(=O)NCc2ccc3c(c2)OCO3)cc2c1[nH]c1ccccc12` belongs 37.8 µM; to `O=C(CCCCn1c(=O)c2ccccc2n(CC(=O)Nc2ccc(F)c(Cl)c2)c1=O)NCc1ccco1`, > 50 µM (inactive).
As for `COC(=O)CC1CC23OC2(C(=O)c2c(O)cccc2C3=O)C(C)O1` (stereo not drawn), the IC50 is > 50 µM (inactive).
For the compound `O=C(Nc1ccc(SCc2nnc(-c3ccccc3)o2)cc1)C1CC1`, the IC50 is > 50 µM (inactive).
Consider `COc1ccc(CCC(=O)Nc2ncc(C)s2)cc1OC`, for which the IC50 was > 50 µM (inactive).
To `COc1ccc(Cn2c(SCc3ccc(C(=O)NCCc4ccccc4)cc3)nc3ccncc32)cc1` belongs > 50 µM (inactive).
To `Cc1cccc(NC(=O)c2noc3c2CCc2sccc2-3)n1` belongs > 50 µM (inactive).
To `Cc1ccc(-c2nc(Cn3cnc4ccccc4c3=O)cs2)cc1` belongs 18.9 µM; to `COC(=O)c1cc2c(ccn2C)n1CC(=O)NC1CCCC1`, > 50 µM (inactive); to `CCOCCCn1c(SCC(=O)Nc2ccccc2C(F)(F)F)nc2ccccc2c1=O`, 19.4 µM.
Turning to `Cc1cc(C(=O)Nc2cc(C)n(Cc3ccc(Cl)cc3)n2)no1`, the IC50 is > 50 µM (inactive).
The result for `Cc1nc(N2CCCC2)ncc1-c1cc(=O)[nH]c(N2CCc3ccccc3C2)n1` reads 29.3 µM.
In the case of `COc1ccc(-c2cc3c(=O)n(CC(=O)NCCCN4CCCC4)ncn3n2)cc1`, the IC50 was > 50 µM (inactive).
As for `CC1CC(=O)Nc2ccccc2N1S(=O)(=O)c1ccc(C#N)cc1` (stereo not drawn), the IC50 was > 50 µM (inactive).
Take `COc1ccccc1OCc1ccc(C(=O)Nc2ccc(F)cc2C)cc1`: the IC50 is > 50 µM (inactive).
To `CCCCN(CC)c1ncnc2c1sc1nc(-c3ccco3)c3c(c12)CC(C)(C)OC3` belongs > 50 µM (inactive); to `CCCNc1cc(-c2ccccc2)nc2nc(-c3cccnc3)nn12`, > 50 µM (inactive).
As for `Cc1cccc(C(=O)Nc2ccc3c(c2)nc(CSc2nccc(C)n2)n3C)c1`, the IC50 is > 50 µM (inactive).
Take `Cc1cccc(NC(=O)CSc2ncnc3c2sc2nc(CC(C)C)c4c(c23)CCC4)c1`: the IC50 is > 50 µM (inactive).
Take `Cc1ncncc1C(=O)N1CCCC(C)(c2ncc(Cc3cccc(F)c3)o2)C1` (stereo not drawn): the IC50 was > 50 µM (inactive).
As for `CC1CCN(C(=O)c2cn(-c3cc(N4CCC(C)CC4)ncn3)cn2)CC1`, the IC50 was > 50 µM (inactive).
Regarding `CC1(C)C[C@@H](O)[C@]2(C)CC[C@]3(C)C(=CCC4[C@@]5(C)CC[C@H](O)[C@](C)(CO)[C@@H]5CC[C@]43C)[C@@H]2C1` (stereo partly drawn), the IC50 was > 50 µM (inactive).
The result for `Cc1ccc(NC(=O)c2cc(-c3cccnc3)n(-c3ccccc3)n2)nc1` reads > 50 µM (inactive).
In the case of `CC1=C(C)C(c2c(-c3ccc(C)cc3)[nH]c3ccccc23)N(C(C)(C)C)C1=O` (stereo not drawn), the IC50 was 8.84 µM.
To `COc1cccc2cc(C(=O)Nc3nc(-c4ccncc4)cs3)oc12` belongs 1.51 µM.
As to `CC(=O)N1CCOc2cc(S(=O)(=O)N3CCCC3c3cc(C)no3)ccc21` (stereo not drawn), the IC50 was > 50 µM (inactive).
Take `Cc1nc(-c2ccc(NC(=O)N3CCN(c4ccccn4)CC3)cc2)no1`: the IC50 was > 50 µM (inactive).
`Cn1c(C(=O)NCc2ccccn2)cc2c(=O)[nH]c3ccccc3c21`: the IC50 is > 50 µM (inactive).
With `CCc1ccc2[nH]c3c(c(=O)c2c1)CN(CC(=O)NCc1ccc2c(c1)OCO2)CC3`, the IC50 is 28.6 µM.
The result for `COc1ccccc1-c1ccc(CN2[C@@H](c3ccccc3)C[C@@H]3NC(=O)CCC[C@H]32)cc1` reads > 50 µM (inactive); that for `O=C(Cc1ccccc1F)N1CCC2(CC1)CC1(CO2)Nc2ccccc2-n2cccc21` (stereo not drawn), > 50 µM (inactive); that for `Cc1cc(C)n2nc(CNc3cccc(Cl)c3)nc2n1`, > 50 µM (inactive).
Take `Cc1ccc(Cn2c(=O)c3ccccc3n3c(CCC(=O)N4CCN(c5ccccn5)CC4)nnc23)cc1`: the IC50 was 9.18 µM.
In the case of `CCn1cc2c(n1)c(=O)n(Cc1ccccc1)c(=O)n2CC(=O)Nc1ccc(OC)cc1`, the IC50 is 12.1 µM.
Turning to `CN1C(=O)[C@@]23C[C@]4([C@@]56C[C@]78SS[C@](CO)(C(=O)N7[C@@H]5Nc5ccccc56)N(C)C8=O)c5ccccc5N[C@@H]4N2C(=O)[C@]1(CO)SS3`, the IC50 was > 50 µM (inactive).
As for `CC1CCCCN1c1nc(F)c2c(c1F)S(=O)(=O)CCN2Cc1ccccc1` (stereo not drawn), the IC50 was > 50 µM (inactive).
For `COc1ccc(NC(=O)C2C3C=CC4(O3)C2C(=O)N(CCc2ccccc2)C4C(=O)NC2CCCCC2)cc1` (stereo not drawn), the IC50 was 26.6 µM.
For the compound `c1coc(CNc2nc(Nc3cccc4ccccc34)nc3ccccc23)c1`, the IC50 is > 50 µM (inactive).
As to `O=C(NCc1ccc2c(c1)OCO2)c1nc(-c2ccccc2)n(-c2ccccc2)n1`, the IC50 is > 50 µM (inactive).
Turning to `Cc1cccc(Cl)c1NC(=O)Nc1ccc(NC(=O)c2ccccc2O)cc1`, the IC50 is 47.8 µM.
As for `CCCCc1nc2sc3c(NCCN4CCOCC4)ncnc3c2c2c1CCC2`, the IC50 is > 50 µM (inactive).
Consider `COc1ccc(N(CC(=O)Nc2cccc(F)c2)S(=O)(=O)c2ccc(OC)c(OC)c2)cc1`, for which the IC50 is 22.4 µM.
As to `COc1ccc(-c2cc3c(=O)n(CC(=O)Nc4ccccc4F)ccn3n2)cc1OC`, the IC50 was > 50 µM (inactive).
Take `COc1ccc(C2SCC(=O)Nc3c2c(=O)[nH]n3C2CCCCCC2)cc1` (stereo not drawn): the IC50 is 30.1 µM.
To `COc1cccc(/C=C/c2nc(C#N)c(N3CCN(C(=O)c4cccs4)CC3)o2)c1` belongs > 50 µM (inactive).
To `Cc1ccc(NC(=O)Cn2c(Nc3cccc(C)c3)nc(C)cc2=O)cc1` belongs 31 µM; to `Cc1sc(NC(=O)CNc2ccccc2)nc1-c1ccc2c(c1)CCN2C(=O)C(C)C`, > 50 µM (inactive); to `COc1ccc(Cl)cc1NC(=O)c1cc(-c2ccccn2)n[nH]1`, 2.58 µM.
To `Cc1ccc(NC(=O)c2ccn(COc3ccc(F)cc3)n2)nc1` belongs > 50 µM (inactive); to `COc1cc(C(=O)OCc2csc(-c3ccccc3)n2)ccc1OCC(=O)Nc1ccc(F)cc1`, > 50 µM (inactive).
Turning to `Cc1sc2nc(CN3CCCC3)nc(NCCc3ccc(Cl)cc3)c2c1C`, the IC50 was > 50 µM (inactive).
`O=C(Nc1ccc(F)cc1)Nc1ccccc1OCc1cc(=O)n2ccccc2n1`: the IC50 is 39.3 µM.
For the compound `Cc1ccccc1C(=O)OCCN1C(=O)c2cccc3c(N4CCOCC4)ccc(c23)C1=O`, the IC50 is > 50 µM (inactive).
For the compound `Cc1ccc(C(=O)Nc2nc3n(n2)C(c2ccccc2)CC(=O)N3)cc1` (stereo not drawn), the IC50 is 28.6 µM.
Turning to `N#Cc1cc2c(nc1SCC(=O)NCc1ccccc1)CCCC2`, the IC50 is > 50 µM (inactive).
As for `COc1ccc(COc2ccc3c(C)c(CC(=O)N4CC[C@@]5(O)CCCC[C@H]5C4)c(=O)oc3c2)cc1`, the IC50 is 4.62 µM.
Take `COc1cccc(NC(=O)c2nnn(-c3ccccc3)n2)c1`: the IC50 was > 50 µM (inactive).
With `CCOc1ccc2nc(NC(=O)C3CCN(S(=O)(=O)c4ccc5c(c4)CC(C)N5C(C)=O)CC3)sc2c1` (stereo not drawn), the IC50 was > 50 µM (inactive).
With `O=C(Nc1ccc2c(c1)OCCO2)c1cc(CN2CCOCC2)on1`, the IC50 is > 50 µM (inactive).
As to `C=Cc1ccc(Cn2cc(S(=O)(=O)N3CCOCC3)ccc2=O)cc1`, the IC50 was > 50 µM (inactive).
Regarding `COCCNC(=O)c1ccn(-c2ccc3ccc(-c4cnn(C)c4)cn23)n1`, the IC50 is > 50 µM (inactive).
Consider `Cc1c(OCC(=O)Nc2nc3ccccc3[nH]2)ccc2c3c(c(=O)oc12)CCC3`, for which the IC50 is 2.66 µM.
The result for `CCOc1ccc(Nc2cc(C(=O)NCCc3ccccc3)c3ccccc3n2)cc1` reads 35.4 µM.
Turning to `CCn1ccc2c(cc(C(=O)Nc3cc(F)ccc3F)n2C)c1=O`, the IC50 was > 50 µM (inactive).
For the compound `Cc1ccc2c(c1)[C@]1(C(=O)N2)[C@@H](C(=O)c2ccccc2)[C@]2(C(=O)Nc3ccccc32)[C@@H]2CCCN21`, the IC50 is 25.1 µM.
For the compound `Cc1nn(Cc2ccccc2)c(Cl)c1C(=O)NC1CCCc2ccccc21` (stereo not drawn), the IC50 is > 50 µM (inactive).
In the case of `Cc1c(OCC(=O)NCC(=O)N2CCC3(O)CCCCC3C2)ccc2c3c(c(=O)oc12)CCCC3` (stereo not drawn), the IC50 was > 50 µM (inactive).
For the compound `O=C(COc1ccccc1-c1nnc(-c2ccccc2)o1)Nc1ccc(F)cc1F`, the IC50 is 39.4 µM.
To `O=C(Nc1cccc(N2CCCC2=O)c1)c1cccc2cccnc12` belongs > 50 µM (inactive); to `CSc1ccc(CNC(=O)CC2CCN(S(=O)(=O)c3ccc(C)cc3)CC2)cc1`, 30.7 µM.
The result for `Cc1sc(NC(=O)CN2CCc3ccccc3C2)nc1-c1ccc2c(c1)CCN2C(=O)C1CCCCC1` reads > 50 µM (inactive).
`CCOc1ccc(NC(=O)Cn2cc(C(=O)c3ccc(Cl)cc3)c(=O)c3cc(OC)ccc32)cc1`: the half-inhibitory concentration (IC50) is 4.68 µM.
As for `Cc1ccc(-n2c(-c3ccccc3)cn3c4c(=O)[nH]c(=O)n(C)c4nc23)cc1Cl`, the IC50 was > 50 µM (inactive).
Consider `c1ccc(-n2nnc(-c3noc(-c4ccccn4)n3)c2-c2ccncc2)cc1`, for which the IC50 was 38.7 µM.
As to `N#Cc1c(-c2ccccc2)ccn(Cc2cccc(C(F)(F)F)c2)c1=O`, the IC50 was > 50 µM (inactive).
`CCN(CC(=O)Nc1cc(C)on1)c1cccc2ccccc12`: the IC50 is > 50 µM (inactive).
For `CCOc1ccc2[nH]c(=O)c(CN(C(=O)c3cccs3)C3CCCC3)cc2c1`, the IC50 is 29.2 µM.
As for `Cc1cc(Cl)ccc1NC(=O)c1cc(-c2cccnc2)n[nH]1`, the IC50 is > 50 µM (inactive).
Regarding `COc1ccc(C)cc1NC(=O)Cc1csc(NC(=O)c2ccc(=O)[nH]c2)n1`, the IC50 is > 50 µM (inactive).
For the compound `CC[C@H](C)[C@H](NC(=O)[C@H]([C@@H](C)CC)N(C)C(C)=O)C(=O)N[C@H](C(=O)N[C@@H](CC(C)C)C(=O)C1(C)CO1)[C@@H](C)O` (stereo partly drawn), the IC50 was > 50 µM (inactive).
As for `COc1ccc(Nc2nc3c(S(=O)(=O)c4ccc(C)cc4)nnn3c3ccsc23)c(OC)c1`, the IC50 is 40.1 µM.
